Organism: Rattus norvegicus
Experiment: Open TG-GATES - Regimen: Daily Repeat
Type: toxicity, organism-based, Sprague-Dawley
Set-up: regimen Daily Repeat, gender Male, age 6 weeks
Settings: in vivo, po, 600 mg/kg, route gavage, dose level High; for ALP / ALT / CRE / DBIL / GLC / IP / K / LDH / Na / PL / RALB / TBIL / TC / TG / TP / gamma-GTP / BUN: tissue Plasma

## CCN(CC)C(=S)SSC(=S)N(CC)CC
72 h, time 3 day
  TERMINAL_BW: 211.3 g
  ALP: 963 IU/L
  ALT: 47.6 IU/L
  CRE: 0.1 mg/dL
  DBIL: 0.02 mg/dL
  GLC: 162 mg/dL
  IP: 7.7 mg/dL
  K: 3.7 meq/L
  LDH: 341.6 IU/L
  Na: 144 meq/L
  PL: 212.8 mg/dL
  RALB: 3 g/dL
  TBIL: 0.018 mg/dL
  TC: 147.4 mg/dL
  TG: 29.4 mg/dL
  TP: 5.8 g/dL
  gamma-GTP: 1.4 IU/L
72 h, tissue Blood, time 3 day
  APTT: 23.3 s
  Bas: 0%
  Eos: 0.6%
  Fbg: 405.6 mg/dL
  Hb: 12.6 g/dL
  Ht: 37.8%
  MCH: 20.2 pg
  MCHC: 33.3%
  MCV: 60.9 fL
  Mono: 2.4%
  PT: 15.5 s
  Plat: 118.3 x10_4/uL
  RBC: 623 x10_4/ul
  Ret: 4.4%
  WBC: 61.8 x10_2/uL
[…], time 7 day
  TERMINAL_BW: 217.6 g
  ALP: 563.5 IU/L
  ALT: 41.8 IU/L
  BUN: 17.5 mg/dL
  CRE: 0.2 mg/dL
  DBIL: 0.0275 mg/dL
  GLC: 147.5 mg/dL
  IP: 7.2 mg/dL
  K: 4.3 meq/L
  LDH: 354.2 IU/L
  Na: 145.2 meq/L
  PL: 201 mg/dL
  RALB: 2.9 g/dL
  TBIL: 0.025 mg/dL
  TG: 16.5 mg/dL
  TP: 5.8 g/dL
  gamma-GTP: 2.5 IU/L
[…], time 14 day
  TERMINAL_BW: 270 g
  ALP: 1017.2 IU/L
  ALT: 34 IU/L
  BUN: 21 mg/dL
  CRE: 0.2 mg/dL
  DBIL: 0.004 mg/dL
  GLC: 161.2 mg/dL
  IP: 6.9 mg/dL
  K: 4.1 meq/L
  LDH: 173.8 IU/L
  Na: 142.8 meq/L
  PL: 178.8 mg/dL
  RALB: 3.3 g/dL
  TBIL: 0.024 mg/dL
  TC: 109.4 mg/dL
  TG: 29.2 mg/dL
  TP: 6.2 g/dL
  gamma-GTP: 2.8 IU/L
[…], time 28 day
  TERMINAL_BW: 304.2 g
  ALP: 651.8 IU/L
  ALT: 34.2 IU/L
  BUN: 19.6 mg/dL
  CRE: 0.2 mg/dL
  DBIL: 0.014 mg/dL
  GLC: 156.8 mg/dL
  IP: 6.1 mg/dL
  K: 3.8 meq/L
  LDH: 159.2 IU/L
  Na: 143 meq/L
  PL: 166.6 mg/dL
  RALB: 3.2 g/dL
  TBIL: 0.044 mg/dL
  TC: 112.4 mg/dL
  TG: 16.2 mg/dL
  TP: 6.4 g/dL
  gamma-GTP: 2.8 IU/L
[…], tissue Blood, time 7 day
  APTT: 25.8 s
  Bas: 0%
  Eos: 0.5%
  Fbg: 408.2 mg/dL
  Hb: 13.4 g/dL
  Ht: 40%
  Lym: 64.8%
  MCH: 19.7 pg
  MCHC: 33.5%
  MCV: 58.8 fL
  Mono: 5%
  Neu: 28.8%
  PT: 18.8 s
  Plat: 130.8 x10_4/uL
  RBC: 681.5 x10_4/ul
  Ret: 4.8%
  WBC: 88.4 x10_2/uL
[…], tissue Blood, time 14 day
  APTT: 22.8 s
  Bas: 0%
  Eos: 1%
  Fbg: 377.4 mg/dL
  Hb: 13.4 g/dL
  Ht: 38.3%
  MCH: 19.6 pg
  MCHC: 35%
  MCV: 55.9 fL
  Mono: 2.4%
  Neu: 22.6%
  PT: 16.8 s
  RBC: 683.8 x10_4/ul
  Ret: 5.7%
  WBC: 85.1 x10_2/uL
[…], tissue Blood, time 28 day
  APTT: 20.8 s
  Bas: 0%
  Eos: 1%
  Fbg: 382.2 mg/dL
  Hb: 13.4 g/dL
  Ht: 38.9%
  MCH: 18.9 pg
  MCHC: 34.5%
  MCV: 54.9 fL
  Mono: 2.6%
  Neu: 17.8%
  PT: 17.4 s
  Plat: 99.3 x10_4/uL
  RBC: 708.2 x10_4/ul
  Ret: 4.8%
  WBC: 98.6 x10_2/uL
